Test results reported in patent US8957228B2, “Macrolide compound having anticancer effect” (Tohoku University, priority 2010, dated 2015).

Columns and labels:
[1] = test system: A549, H460 and A172 cell lines; assay: Antiproliferative activity test (Alamar Blue, 72 hours), statements across cell lines; format: cell-based, human; details: result in words; for induction of cell death: no data are shown
From the text: (§1) Antiproliferative activities of exiguolide and its analogs shown in Examples were examined using A549 and H460 cell lines derived from lung cancer and an A172 cell line derived from human glioblastoma cells. Each cell line was maintained in an RPMI 1640 medium supplemented with 10% fetal bovine serum (in the cases of the H460 cell line and the A172 cell line) or in a DMEM medium supplemented with 10% fetal bovine serum (in the case of the A549 cell line). Cells in the proliferative phase were seeded in a 96-well plate in triplicate and were cultured for 72 hours in the presence of the compound at various concentrations. At the completion of the culture period, an Alamar Blue solution (Invitrogen Corporation) was added to each culture in an amount of 1/10 of that of the medium, followed by leaving to stand for 3 hours. The fluorescence intensity was measured with Fluoroskan Ascent (Thermo Fisher Scientific K.K.). […] The fluorescence intensities of experimental groups were determined as relative intensities to that of the control group and were plotted. The concentration of a compound for achieving the 50% growth inhibition (IC50) of each cancer cell line was calculated by a non-linear regression model of standard slope using the GraphPad Prism software.

NCI-H460 cell line = details: National Cancer Institute database; cited from earlier work
A549 cell line = details: National Cancer Institute database; cited from earlier work
SK-OV-3 cell line = details: National Cancer Institute database; cited from earlier work
[2] = test system: Rb phosphorylation in A549 cell line; assay: Activity of cell cycle regulator Rb by Western blotting; format: cell-based, human; details: A549 exposed to 0.01 to 5 μM for 72 hours
H460 cell line = details: H460 exposed to 1 μM
Description: The cell-cycle arrest activity of exiguolide was investigated. The H460 cell line was exposed to 1 μM of exiguolide, and the ratio of cells at each cell cycle phase was measured with a flow cytometer. The DNA staining reagent used was propidium iodide. The A549 cell line was exposed to exiguolide (0.01 to 5 μM) for 72 hours, and then the activity of a cell cycle regulator, Rb, was measured by Wester blotting.

[3] = test system: Hemicentrotus pulcherrimus; details: Non Patent Literature 1; cited from earlier work
[4] = test system: A172 cell line derived from human glioblastoma cells; assay: Antiproliferative activity test (Alamar Blue, 72 hours); format: cell-based; details: read-out: IC50 (50% growth inhibition)
From the text: as §1

[5] = test system: NCI-H460 (human lung large cell carcinoma); assay: Drug sensitivity test, panel of human cultured cancer cell lines (sulforhodamine B colorimetry); format: cell-based
Description: (§2) The anticancer activity of exiguolide was examined by an in vitro drug sensitivity test using a panel of 39 human cultured cancer cell lines, by Professor Yamori, Molecular Pharmacology, Cancer Chemotherapy Center of Japanese Foundation for Cancer Research upon request.
(§3) The test was performed by seeding seven lung cancer cell lines, six gastric cancer cell lines, five colon cancer cell lines, five ovarian cancer cell lines, six brain cancer cell lines, five breast cancer cell lines, two kidney cancer cell lines, two prostatic cancer cell lines, and one melanoma cell line, 39 cell lines in total, in a 96-well plate, adding a sample solution containing a predetermined concentration of exiguolide to each well on the following day, culturing the cell lines for two days, and measuring the cell growth by colorimetry with sulforhodamine B. The measurement results were input into a computer, and the sensitivity patterns (growth rate and finger print, described below) of each cell line on exiguolide were analyzed using three parameters, GI50, TGI, and LC50, as indices. The data were also subjected to analysis comparing with sensitivities on known compounds showing cell growth-inhibiting activities.
(§4) The growth rate percentages were plotted with respect to drug concentrations (logarithm) for each cell line, and the growth rates (%) were summarized on each organ cancer (FIG. 3: dose-response curves). In each curve, the concentrations at the points at which the growth rates 50%, 0%, and -50% intersect horizontal lines correspond to log GI50, log TGI, and log LC50, respectively.
(§5) The average of log GI50 values of all cell lines tested was determined. The difference between this average and log GI50 value of each cell line (e.g., how much the GI50 of each cell line is high or low relative to the average is shown as logarithmic value) was determined, and the results were drawn as a bar graph extending left or right from the center showing the average log GI50 value (scale: 0) to form finger prints (FIG. 4). A cell line having higher sensitivity is drawn as a longer bar extending to the right side.

[6] = test system: SK-OV-3 (human ovarian carcinoma); assay: as above; format: cell-based
Description: as §2, §3, §4, §5

[7] = test system: A549 (human lung adenocarcinoma); assay: as above; format: cell-based
Description: as §2, §3, §4, §5

[8] = test system: MKN74 (human gastric carcinoma); assay: as above; format: cell-based
Description: as §2, §3, §4, §5

[9] = test system: tumors induced by human lung cancer cell line H460; assay: In vivo antitumor activity test, subcutaneous tumor in immunodeficient mice; design: species or system mice (BALB/cAJcl-nu/nu); details: 0.2 mg/kg intraperitoneally once a day, 15 days
Description: (§6) Immunodeficient mice (BALB/cAJcl-nu/nu) were subcutaneously inoculated with human lung cancer cells (H460, A549, etc.). When the subcutaneous tumor volume reached approximately 200 mm^3, the mice were divided into an exiguolide administration group (n=2) and a control group (n=4) at random. The administration group was intraperitoneally administered with 0.2 mg/kg of exiguolide, and the control group with PBS (200 μL) and DMSO (5 to 10 μL), every day (once a day). […] The subcutaneous tumors were recognized from the body surface, and the change in tumor diameter was measured with a vernier caliper. […] After completion of the observation, the mice were euthanized with halothane. The tumors were extracted and were subjected to observation of the size, weight, and pathological findings.
(§7) The results are shown in FIG. 8 (H460) and FIG. 9 (A549). In each graph, the vertical axis (relative volume) represents the relative values of the estimated tumor volume of each group to that on the day 0, where the estimated tumor volume is expressed using a major axis “a” and a minor axis “b” by (a×b^2)/2.

[10] = test system: tumors induced by human lung cancer cell line A549; assay: as above; design: species or system mice (BALB/cAJcl-nu/nu); details: printed 'in the H460 cell line', 0.2 mg/kg intraperitoneally once a day
Description: as §6, §7

[11] = test system: A549 cell line derived from lung cancer; assay: Antiproliferative activity test (Alamar Blue, 72 hours); format: cell-based, human; details: read-out: IC50 (50% growth inhibition)
From the text: as §1

[12] = test system: H460 cell line derived from lung cancer; assay: as above; format: cell-based, human; details: read-out: IC50 (50% growth inhibition)
From the text: as §1

[13] = concentration inducing 50% growth inhibition, two days culture
[14] = concentration inducing 50% cell death, read-out: LC50 (the source's name)

Compound: COC(=O)C/C(C)=C/C=C\C=C\C1OC(=O)CC2C[C@H](O)C[C@H](CC3CCC[C@H](C[C@@H](C)/C=C/[C@@H]1C)O3)O2 (stereo partly shown) [analog 1]
- cell growth-inhibiting effect [1]: remarkable cell growth-inhibiting effects
- induction of cell death [1]: active induction of cell death was observed

Compound: CCCCC=C/C=C/C1OC(=O)CC2C[C@H](O)C[C@H](CC3CCC[C@H](C[C@@H](C)/C=C/[C@@H]1C)O3)O2 (stereo partly shown) [analog 4]
- cell growth-inhibiting effect [1]: remarkable cell growth-inhibiting effects
- induction of cell death [1]: active induction of cell death was observed

Compound: COC(=O)C/C(C)=C/C=C\C=C\C1OC(=O)CC2CC(=O)C[C@H](CC3CCC[C@H](C[C@@H](C)/C=C/[C@@H]1C)O3)O2 (stereo partly shown) [analog 7]
- cell growth-inhibiting effect [1]: remarkable cell growth-inhibiting effects
- induction of cell death [1]: active induction of cell death was observed

Compound: CCC/C=C/C=C/C(=O)O[C@H]1/C(=C/C(=O)OC)C[C@H]2C[C@H]([C@@H](C)O)OC(=O)C[C@H](O)C[C@@H]3C[C@H](OC(C)=O)C(C)(C)[C@](O)(C[C@@H]4C/C(=C/C(=O)OC)C[C@H](/C=C/C(C)(C)[C@]1(O)O2)O4)O3 [bryostatin 1]
- antiproliferative activity (log value compared with Log GI50) (NCI-H460 cell line): −5.6
- antiproliferative activity (log value compared with Log GI50) (A549 cell line): −5.4
- antiproliferative activity (log value compared with Log GI50) (SK-OV-3 cell line): −5.3

Compound: COC(=O)/C=C1\C[C@H]2CC(=O)O[C@@H](/C=C/C=C\C=C(/C)CC(=O)OC)[C@@H](C)/C=C/[C@H](C)C[C@H]3CCC[C@@H](C[C@@H](C1)O2)O3 [exiguolide, (−)exiguolide]
- phosphorylation of G1-regulating protein Rb [2]: decreased with an increase in concentration of exiguolide
- ratio of cells at G1 phase in cell cycle (H460 cell line): consistently increased the ratio of the G1 phase in cell cycle
- activity of inhibiting maturation of ova and spermatozoa [3]: activity of inhibiting maturation of ova and spermatozoa
- IC50 [4]: 460 nM
- LC50 ([5]; concentration inducing 50% cell death): > 100000 nM
- GI50 [5, 13]: 10 nM
- Log GI50 [5, 13]: −8.00
- CC50 [6, 14]: > 100000 nM
- GI50 [6, 13]: 700 nM
- Log GI50 [6, 13]: −6.15
- CC50 [7, 14]: > 100000 nM
- GI50 [7, 13]: 650 nM
- Log GI50 [7, 13]: −6.19
- CC50 [8, 14]: > 100000 nM
- GI50 [8, 13]: 690 nM
- Log GI50 [8, 13]: −6.16
- relative tumor weight of administration group at the end of the experiment [9]: 3.35
- relative tumor weight ratio (administration group/control group) at the end of the experiment [9]: 0.17
- relative tumor weight ratio (administration group/control group) at the end of the experiment ([10]; second of two ratios): 0.33
- relative tumor weight of administration group at the end of the experiment ([10]; second of two values): 1.17
- IC50 [11]: 590 nM
- IC50 [12]: 280 nM
